Results on twelve compounds are retold here after PubChem BioAssay (NCI).

SMILES strings stand for the structures.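 How tested: cells in 96-well plates exposed to compound for 48 hours at five concentrations. TGI: total growth inhibition.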

Assay in all cases: inhibition of tumour cell growth, NCI panel, 48 h
Test [1] relates to A549 NSCLC.
In test [2] the test system is CAKI-1 renal.
Test [3] has as its system HCT-15 colon.
Test [4] has as its system K-562 leukemia.
The test system of test [5] is M14 melanoma.
The subject of test [6] is MOLT-4 leukemia.
The test system of test [7] is NCI-H226 lung.
Test [8] concerns RPMI-8226 leukemia.
Test [9] concerns SK-MEL-5 melanoma.
Test [10] relates to TK-10 renal.

As to `Cn1nc2c(c1N)Cc1c(nn(C)c1N)-c1ccccc1-2`, the TGI in test [1], in test [2], in test [3], in test [4], in test [5] and in test [6] was > 100 µM in each case. The TGI in [7], in test [8], in test [9] and in test [10] was > 100 µM in each case.
As to `S=c1[nH]nc(Cn2c3ccc(Br)cc3c3nc4ccccc4nc32)n1C1CCCCC1`, the TGI in [1] was > 64.1 µM; in test [2], > 100 µM; in test [3], > 100 µM; in [4], > 100 µM; in test [5] it was > 100 µM; in test [6], 28.6 µM. In addition, the TGI in test [7] was > 76.6 µM; in test [8] it was 59.4 µM; in test [9] it was 49.1 µM; in test [10], > 95.1 µM.
As to `Cc1cccc(NS(=O)(=O)c2ccc(N=Nc3c(O)c(C(=O)O)cc4ccccc34)cc2)n1`, the TGI in test [1], in [2], in test [3], in [4], in [5] and in test [6] was > 100 µM in each case. For the same compound, the TGI in test [7], in test [8], in [9] and in test [10] was > 100 µM throughout.
`Cn1c2c(c3ccccc31)CCN1C(=O)C34CCCC3CC21S4` (stereo not given): the TGI in test [1], in test [2], in test [3], in test [4], in [5] and in test [6] was > 100 µM each time. Besides, the TGI in test [7], in [8], in [9] and in test [10] was > 100 µM in each case.
Regarding `C[N+]1(CCN=C=NC2CCCCC2)CCOCC1`, the TGI in [1], in [2], in [3], in [4], in test [5] and in [6] was > 100 µM each time. The TGI in test [7], in test [8], in [9] and in [10] was > 100 µM each time.
Consider `CC1(C)N=C(N)N=C(N)N1c1cccc(OCc2cccc(N)c2)c1`, for which the TGI in test [1], in test [2], in [3], in [4], in test [5] and in test [6] was > 100 µM throughout. Besides, the TGI in test [7], in [8], in test [9] and in test [10] was > 100 µM throughout.
For the compound `COc1cc2[nH]c(=O)c3cc(-c4ccccc4)cc4c(Cl)nc(c1OC)c2c43`, the TGI was > 71.7 µM in test [1]; 71 µM in test [2]; > 75.8 µM in [3]; > 100 µM in test [4]; > 62.9 µM in test [5]; > 44.7 µM in [6]. The TGI in test [7] is > 100 µM; in test [8], > 100 µM; in test [9], 28 µM; in test [10], > 70 µM.
Turning to `COC(=O)C1=C(C)NC(C)=C(C(=O)OC)C1c1cccc(N=O)c1`, the TGI was > 100 µM in [1]; 22.4 µM in test [2]; 32.5 µM in test [3]; > 100 µM in test [4]; 27 µM in [5]; > 100 µM in [6]. Moreover, the TGI in [7] was 37.8 µM; in [8], > 100 µM; in test [9], 29.8 µM; in [10], 28.2 µM.
For `O=C(OC12CC3CC(CC(C3)C1)C2)c1ccc(NCc2cc(O)ccc2O)cc1`, the TGI in test [1] worked out at 16.5 µM; in [2] it was 0.825 µM; in [3] it was 2.29 µM; in test [4], 2.38 µM; in [5] it was 5.18 µM; in test [6] it was 0.451 µM. The TGI in [7] is 6.2 µM; in test [8], 0.401 µM; in test [9], 3.74 µM; in [10], 1.96 µM.
With `CCN(CC)c1ccc(NC(=S)NN(C)C)cc1`, the TGI in test [1], in [2], in [3], in test [4], in test [5] and in test [6] was > 10 µM throughout. The TGI in [7], in test [8], in [9] and in [10] was > 10 µM each time.
As to `Nc1c(S(N)(=O)=O)cc(S(N)(=O)=O)cc1S(N)(=O)=O`, the TGI in test [1], in test [2], in test [3], in [4], in test [5] and in test [6] was > 100 µM throughout. For the same compound, the TGI in test [7], in test [8], in [9] and in [10] was > 100 µM in each case.
With `CC1(C)OC[C@@H](C[C@H](O)COCc2ccccc2)O1`, the TGI in test [1], in test [2], in test [3], in test [4], in test [5] and in [6] was > 100 µM each time. For the same compound, the TGI in test [7], in test [8], in test [9] and in test [10] was > 100 µM each time.
